Reference: patent US9433687B2, “Anti-Notch3 antibodies and antibody-drug conjugates” (Pfizer Inc., priority 2012, dated 2016)

Key:
[1] = tested on: 37622A1 NSCLC patient-derived xenografts; assay: 37622A1 patient derived NSCLC xenograft model; type: in vivo, mouse; settings: 5 mg/kg Q4dx4
Description: The effects of anti-Notch3 ADCs were examined in immunodeficient mice on the in vivo growth of human tumor xenografts that were established from fragments of freshly resected 37622A1 NSCLC tumors obtained in accordance with appropriate consent procedures (Asterand). The 37622A1 NSCLC patient-derived xenografts were subcutaneously passaged in vivo as fragments from animal to animal in nude (Nu/Nu) female mice. When the tumors reached a volume of 150 to 300 mm^3, they were staged to ensure uniformity of the tumor size among various treatment groups. The 37622A1 NSCLC patient-derived xenografts model was dosed intravenously four times every four days (Q4d×4) with PBS vehicle, humanized anti-Notch3 ADCs, control huNeg-8.8 ADCs and cisplatin at the doses provided in Table 19.

N87 gastric xenografts = assay: N87 gastric xenograft model; type: in vivo, mouse; settings: for tumor volume: dose 5 mg/kg intravenously Q4d×4
Experimental: Similar in vivo experiments were performed with the N87 gastric cancer cell line as described above. To generate xenografts, nude (Nu/Nu) female mice were implanted subcutaneously with 8×10^6 N87 cells in 50% Matrigel (BD Biosciences).
The N87 gastric model was also dosed intravenously Q4d×4 with PBS vehicle, rat-human chimeric anti-Notch3 ADCs and control huNeg-8.8 ADCs, at a dose of 5 mg/kg as provided in FIG. 16D.
The N87 gastric model was also dosed intravenously Q4d×4 with PBS vehicle and rat-human chimeric anti-Notch3 ADCs ch28-mc0131, ch75-mc0131, ch28-m(H2O)c-0131 and ch75-m(H2O)c-0131 at a dose of 5 mg/kg as provided in FIG. 16E.

human Notch2 NRR-Fc = molecular target: T1, human Notch2 NRR-Fc (Homo sapiens, UniProt Q04721); assay: Binding to Notch2 NRR-Fc; settings: N/B = non-binding
T1 construct: Expression constructs encoding human Notch1 and Notch2 NRR regions, fused with human IgG1 Fc fragments; made in house; host or cells: CHO-PACE cells
T1 sequence (Q04721 1425-1677 limits assumed): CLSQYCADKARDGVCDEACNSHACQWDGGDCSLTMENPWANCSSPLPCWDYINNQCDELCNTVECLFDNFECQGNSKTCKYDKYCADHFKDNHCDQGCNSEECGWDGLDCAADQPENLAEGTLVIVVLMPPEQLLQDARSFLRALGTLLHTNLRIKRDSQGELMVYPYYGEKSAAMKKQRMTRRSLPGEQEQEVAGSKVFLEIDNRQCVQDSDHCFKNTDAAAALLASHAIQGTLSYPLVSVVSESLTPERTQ
Description: Other members of the Notch receptor family play important roles in biological processes. For example, a Notch1 or Notch2 deficiency leads to embryonic death in mouse models. In contrast, a Notch4 deficiency results in no detectable phenotype in mouse models. The closest homologues of the Notch3 NRR region are Notch1 and Notch2 (˜50% homology), and Notch4 is a more distant homologue (˜30% homology). Cross-reactivity of anti-Notch3 antibodies to other members of the Notch family, especially Notch1 and 2, may lead to undesired effects in patients. Therefore, the potential cross-reactivity of r28 and hu28, along with r75 and hu75 to other Notch family members were assessed.
Expression constructs encoding human Notch1 and Notch2 NRR regions, fused with human IgG1 Fc fragments were stably introduced into CHO-PACE cells. Conditioned media from these cells expressing NRR-Fc fusions were collected. Human Notch2 NRR-Fc and human Notch1 NRR-Fc were purified by protein A affinity followed by size exclusion chromatography (SEC). Purified preparations were dialysed into TBS with 1 mM CaCl2 and analyzed on analytical SEC to be >99% in purity.

HCC2429 (lung cancer) = assay: In vitro cytotoxicity (MTS), HCC2429; type: cell-based, human; settings: Table 13; four days; LP = lacked potency
Experimental: (§1) The effects of anti-Notch3 ADCs were assessed on 1) cell lines endogenously expressing Notch3 protein: HCC2429 (lung cancer), OVCAR3 (ovarian cancer) and MDA-MB-468 (breast cancer), 2) cell lines engineered to over-express full length human Notch3 protein: MDA-MB-468/hNotch3 and U2OS/hNotch3, and 3) a negative control cell line (SW900) using an MTS cellular viability indicator (Promega, Madison, Wis.). These cell lines were cultured with increasing concentrations of anti-Notch3 ADCs comprising rat-human chimeric anti-Notch3 antibodies, ch28 and ch75, and humanized anti-Notch3 antibodies, hu28 and hu75, conjugated to various linker-payload combinations of the present invention. As a specificity control for the anti-Notch3-ADCs, non-targeted control-ADCs (huNeg8.8-ADCs or ch2H6-ADCs) were also tested on the same cell lines. After four days, viability of each culture was assessed. IC50 values were calculated by logistic non-linear regression, model #203 with XL fit v4.2 (IDBS, Guildford, Surry, UK) and presented as ng Ab/mL. The drug antibody ratio (DAR) is also provided.
(§2) This process generated the anti-Notch3 cysteine mutant ADCs: hu28-(L443C)-vc0101 and hu28-(L443C/κK183C)-vc0101. The activity of the anti-Notch3 cysteine mutant ADCs were assessed on cell lines endogenously expressing Notch3 protein: HCC2429 (lung cancer) and OVCAR3 (ovarian cancer) using an MTS cellular viability indicator as described in previous Examples.

OVCAR3 (ovarian cancer) = assay: In vitro cytotoxicity (MTS), OVCAR3; type: cell-based, human; settings: Table 13; four days; LP = lacked potency
Experimental: as §1, §2

[2] = tested on: MDA-MB-468 (breast cancer); assay: In vitro cytotoxicity (MTS), MDA-MB-468; type: cell-based, human; settings: Table 13; four days; LP = lacked potency
Experimental: as §1

MDA-MB-468/hNotch3 = molecular target: T2, MDA-MB-468/hNotch3 (Homo sapiens, UniProt Q9UM47); assay: In vitro cytotoxicity (MTS), MDA-MB-468/hNotch3; type: cell-based; settings: Table 13; four days; LP = lacked potency
T2 construct: cell lines engineered to over-express full length human Notch3 protein: MDA-MB-468/hNotch3 and U2OS/hNotch3; expressed in transfected cells; host or cells: MDA-MB-468
T2 sequence (Q9UM47 40-2321): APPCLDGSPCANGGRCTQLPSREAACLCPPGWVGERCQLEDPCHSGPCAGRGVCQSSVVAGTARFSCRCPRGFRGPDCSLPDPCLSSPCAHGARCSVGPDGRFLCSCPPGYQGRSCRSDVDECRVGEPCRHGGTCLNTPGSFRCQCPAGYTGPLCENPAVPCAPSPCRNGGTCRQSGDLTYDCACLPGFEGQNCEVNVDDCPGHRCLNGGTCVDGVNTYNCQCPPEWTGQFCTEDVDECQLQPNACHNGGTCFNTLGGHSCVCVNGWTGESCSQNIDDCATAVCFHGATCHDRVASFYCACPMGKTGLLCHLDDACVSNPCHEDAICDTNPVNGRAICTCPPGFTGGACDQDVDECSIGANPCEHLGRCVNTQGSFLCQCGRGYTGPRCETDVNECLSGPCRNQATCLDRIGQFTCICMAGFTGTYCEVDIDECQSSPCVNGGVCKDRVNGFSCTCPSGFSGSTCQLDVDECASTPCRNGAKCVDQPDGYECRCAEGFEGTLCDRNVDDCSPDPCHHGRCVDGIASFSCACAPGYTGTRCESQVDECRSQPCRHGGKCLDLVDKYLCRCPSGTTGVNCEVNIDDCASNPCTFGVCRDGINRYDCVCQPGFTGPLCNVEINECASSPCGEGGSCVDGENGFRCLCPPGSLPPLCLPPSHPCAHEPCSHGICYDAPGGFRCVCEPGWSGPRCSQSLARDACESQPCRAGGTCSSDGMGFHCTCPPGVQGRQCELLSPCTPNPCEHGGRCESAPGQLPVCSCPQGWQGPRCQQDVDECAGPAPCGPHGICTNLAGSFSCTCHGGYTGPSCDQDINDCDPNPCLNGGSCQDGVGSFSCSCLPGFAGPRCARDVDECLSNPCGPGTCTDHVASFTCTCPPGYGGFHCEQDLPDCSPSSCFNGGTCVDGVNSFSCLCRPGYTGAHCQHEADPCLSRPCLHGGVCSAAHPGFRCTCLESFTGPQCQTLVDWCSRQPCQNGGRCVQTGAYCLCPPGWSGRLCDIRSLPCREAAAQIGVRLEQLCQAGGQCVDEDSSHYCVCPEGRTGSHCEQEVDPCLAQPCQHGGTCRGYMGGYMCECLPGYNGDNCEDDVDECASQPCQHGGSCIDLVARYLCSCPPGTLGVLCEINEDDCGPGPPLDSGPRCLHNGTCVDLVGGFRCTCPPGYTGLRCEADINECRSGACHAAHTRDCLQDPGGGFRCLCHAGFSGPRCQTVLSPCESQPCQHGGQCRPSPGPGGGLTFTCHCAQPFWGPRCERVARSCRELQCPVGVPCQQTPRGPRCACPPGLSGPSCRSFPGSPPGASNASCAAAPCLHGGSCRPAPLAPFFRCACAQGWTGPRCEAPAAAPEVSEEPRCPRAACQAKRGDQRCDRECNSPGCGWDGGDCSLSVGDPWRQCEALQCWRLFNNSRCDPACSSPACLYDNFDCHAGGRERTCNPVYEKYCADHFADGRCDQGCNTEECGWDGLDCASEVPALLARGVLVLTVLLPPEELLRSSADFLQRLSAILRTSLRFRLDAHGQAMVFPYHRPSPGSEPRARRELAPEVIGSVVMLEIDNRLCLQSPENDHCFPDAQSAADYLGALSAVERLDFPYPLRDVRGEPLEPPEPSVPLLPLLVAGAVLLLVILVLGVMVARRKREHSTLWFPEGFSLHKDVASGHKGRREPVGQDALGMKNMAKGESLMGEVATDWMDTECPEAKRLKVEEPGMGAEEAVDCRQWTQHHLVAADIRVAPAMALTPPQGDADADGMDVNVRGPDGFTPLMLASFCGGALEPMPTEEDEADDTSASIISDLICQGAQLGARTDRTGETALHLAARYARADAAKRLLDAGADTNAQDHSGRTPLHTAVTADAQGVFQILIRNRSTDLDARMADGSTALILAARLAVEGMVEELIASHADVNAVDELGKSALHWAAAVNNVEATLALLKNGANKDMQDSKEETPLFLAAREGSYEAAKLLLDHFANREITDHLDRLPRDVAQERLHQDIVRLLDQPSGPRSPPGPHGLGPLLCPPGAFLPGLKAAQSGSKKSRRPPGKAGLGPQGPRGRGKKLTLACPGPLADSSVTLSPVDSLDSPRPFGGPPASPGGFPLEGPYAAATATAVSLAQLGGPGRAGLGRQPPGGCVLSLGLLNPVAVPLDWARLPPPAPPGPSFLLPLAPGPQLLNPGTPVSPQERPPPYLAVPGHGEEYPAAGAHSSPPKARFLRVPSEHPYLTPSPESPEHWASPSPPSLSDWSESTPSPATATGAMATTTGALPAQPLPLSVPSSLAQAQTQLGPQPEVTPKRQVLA
Experimental: as §1

Molecule: N.N.[Cl][Pt][Cl] [Cisplatin, reference compound]
- tumor volume ([1]; Day 4): 226 mm^3
- tumor volume ([1]; Day 7): 280 mm^3
- tumor volume ([1]; Day 11): 301 mm^3
- tumor volume ([1]; Day 14): 345 mm^3
- tumor volume ([1]; Day 18): 309 mm^3
- tumor volume ([1]; Day 21): 373 mm^3
- tumor volume ([1]; Day 25): 401 mm^3
- tumor volume ([1]; Day 28): 446 mm^3
- tumor volume ([1]; Day 32): 482 mm^3
- tumor volume ([1]; Day 35): 587 mm^3
- tumor volume ([1]; Day 39): 591 mm^3
- tumor volume ([1]; Day 42): 612 mm^3
- tumor volume ([1]; Day 46): 723 mm^3
- tumor volume ([1]; Day 49): 853 mm^3
- tumor volume ([1]; Day 53): 970 mm^3
- tumor volume ([1]; Day 56): 1215 mm^3
- tumor volume ([1]; Day 60): 1428 mm^3
- tumor volume ([1]; Day -1): 185 mm^3
- tumor volume (N87 gastric xenografts; DAY 0): 328 mm^3
- tumor volume (N87 gastric xenografts; DAY 4): 414 mm^3
- tumor volume (N87 gastric xenografts; DAY 7): 520 mm^3
- tumor volume (N87 gastric xenografts; DAY 11): 501 mm^3
- tumor volume (N87 gastric xenografts; DAY 14): 637 mm^3

B1: r28: parental rat anti-Notch3 antibody clone 28 (VH SEQ ID NO: 5, VL SEQ ID NO: 7) (antibody, V domains shown)
VH: EVQLVESGGGLVQPGRSLTLSCVASGFTFRDYGMTWIRQAPGKGLTWVAYISSGSNYIYYAEAVKGRFTISRDNAKNTLYLQMTSLRSEDTALYFCTRRGPFVLDAWGQGASVTVSS
VL: DIQMTQSPSFLSASVGDRVTINCKASQSINRYLHWFQQKLGEAPKLLIYNANGLQTGIPSRFSGSGSGTDFTLTISSLQSEDVATYFCLQHNTWPDTFGAGTKLELK
- Binding to Notch2 NRR-Fc (human Notch2 NRR-Fc): lacked detectable binding

B2: ch28-mc0131 (conjugate)
VH: B1 VH
VL: B1 VL
- IC50 (ng Ab/mL) ± S.E.M., HCC2429 (HCC2429 (lung cancer)): 251 ± 77.5 ng Ab/mL
- IC50 (ng Ab/mL) ± S.E.M., OVCAR3 (OVCAR3 (ovarian cancer)): 6 ± 1.0 ng Ab/mL
- IC50 (ng Ab/mL) ± S.E.M., MDA-MB-468 [2]: 35 ± 18.5 ng Ab/mL
- growth of N87 gastric xenografts (N87 gastric xenografts; 5 mg/kg iv Q4dx4, FIG. 16D, 16E): inhibited growth of N87 gastric xenografts

B3: r75: parental rat anti-Notch3 antibody clone 75 (VH SEQ ID NO: 9, VL SEQ ID NO: 11) (antibody, V domains shown)
VH: QVKLLQSGAALVKPGASVKMSCKASGYAFTDYWVTWVKQSHGKSLEWIGEISPNSGGTNFNEKFKGKATLTVDKSTSTAYMELSRLTSEDSAIYYCTRGEIRYNWFAYWGQGTLVTVSS
VL: DIQMTQSPSSLSASVGDRVTITCKASQNVGNNIAWYQQKPGKAPKLLIYYASNRYTGVPSRFSGSGYGTDFTLTISSLQPEDFATYYCQRLYNSPFTFGGGTKVEIK
- Binding to Notch2 NRR-Fc (human Notch2 NRR-Fc): lacked detectable binding

B4: ch75-vc6780 (conjugate)
VH: B3 VH
VL: B3 VL
- IC50 (ng Ab/mL) ± S.E.M., HCC2429 (HCC2429 (lung cancer)): 1004 ± 177.0 ng Ab/mL
- IC50 (ng Ab/mL) ± S.E.M., OVCAR3 (OVCAR3 (ovarian cancer)): 922 ng Ab/mL
- IC50 (ng Ab/mL) ± S.E.M., MDA-MB-468 [2]: 6873 ± 4230.0 ng Ab/mL
- IC50 (ng Ab/mL) ± S.E.M., MDA-MB-468/hNotch3 (MDA-MB-468/hNotch3): 21 ± 3.5 ng Ab/mL

B5: ch75-vc0101: ch75 conjugated to vc0101 linker-payload (conjugate)
VH: B3 VH
VL: B3 VL
- IC50 (ng Ab/mL) ± S.E.M., HCC2429 (HCC2429 (lung cancer)): 2112 ± 826.0 ng Ab/mL
- IC50 (ng Ab/mL) ± S.E.M., MDA-MB-468 [2]: 4064 ± 1793.9 ng Ab/mL
- IC50 (ng Ab/mL) ± S.E.M., MDA-MB-468/hNotch3 (MDA-MB-468/hNotch3): 24 ± 4.0 ng Ab/mL
